Results reported in US8883213B2, “Ion exchange resin treated to control swelling” (Coating Place, Inc., priority 2005, dated 2014).
Counter-ions that a name gives are not always drawn.

Experiments:
[1] = Release profile of phenylephrine hydrochloride from drug-resin complex with a 25% coating (Table V); type: physicochemical
[2] = Release of both drugs from coated layer loaded compound B-phenylephrine HCl-IRP-69 drug-resin complex (Table VII); type: physicochemical; settings: from coated layer loaded compound B-phenylephrine HCl-IRP-69 complex
Procedure: The present invention also provides compositions and methods of releasing two or more pharmaceutical compositions. For example, a phenylephrine HCl and IRP-69 drug-resin complex is prepared using any of the methods disclosed herein or as disclosed in the prior art. The phenylephrine HCl and IRP-69 drug-resin complex is directly loaded with a second drug (e.g., compound B) by spray applying a solution containing compound B to the phenylephrine HCl-IRP-69 drug-resin complex. This layer loaded complex (compound B-phenylephrine HCl-IRP-69 drug-resin complex) is then coated as previously described.

% Released ([1]; 0.5 hr): 25.5%
% Released ([1]; 1.0 hr): 30.5%
% Released ([1]; 3.0 hr): 61.0%
% Released ([1]; 6.0 hr): 93.0%
% Released ([1]; 12.0 hr): 97.0%
Released ([2]; 0.5 hour): 48%
Released ([2]; 1.0 hour): 55%
Released ([2]; 1.5 hour): 76%
Released ([2]; 2.0 hour): 81%
Released ([2]; 4.0 hour): 92%
Structure (SMILES): CNC[C@H](O)c1cccc(O)c1 [Phenylephrine Hydrochloride]
